From US20240197729A1, “ALK-5 Inhibitors and Uses Thereof” (Sumitomo Pharma Oncology, Inc., priority 2021, published 2024) come the findings set out here.

Structures are written as SMILES. Read-outs that look alike come from different tables or passages of the source. A value given as a limit tells only on which side of the number the result lay.

A word on the EC50: it is the concentration that produces a half-maximal response. The low end stands for a more potent agent, the high end for a less potent agent.

The test system of series [1] is TGF-β1-mediated αSMA expression. Nature of the series: Fibroblast to myofibroblast transformation (FMT) assay. Particulars: for IC50: Homo sapiens, Fibroblast; for inhibition of TGF-β1-mediated αSMA expression: all three IPF donors; for loss of nuclei: donor IPF03, highest test concentration (10 μM); for Potentially toxic concentration: lowest concentration with >25% loss of nuclei; for modulation of the number of nuclei: donors IPF06 and IPF08.
Procedure: To test the ability of selected compounds to inhibit the TGF-β1-dependent transition of fibroblasts to myofibroblasts in a relevant disease model of IPF, an FMT assay was performed using lung fibroblasts from IPF patients. In this assay, the transition of fibroblasts to myofibroblasts is determined by the expression of the biomarker alpha smooth muscle actin (α-SMA).
Primary human bronchial fibroblasts derived from IPF patients were seeded on day zero and the media was refreshed on day two. On day five, selected compounds or controls were added at an eight-point concentration response curve starting at 10 μM (semi-log dilutions). Each drug concentration condition was evaluated in biological duplicates. […] Seventy-two hours following TGF-beta addition, the cells were fixed with formaldehyde. High content imaging evaluating cell number using the nuclear stain DAPI as well as the expression of a-SMA was performed. The following controls were run alongside the selected compounds: vactosertib and the approved IPF drug nintedanib (at an eight-point, semi-log curve with 10 μM starting concentration). As a negative control 0.1% DMSO was also used, matching the DMSO concentration in treated wells. The following calculations were used to determine cell number as well as percent inhibition (PIN) of alpha SMA expression:
• Segmentation and quantification of αSMA immunoreactivity by an HCA algorithm, with density×area (D×A) output • Data normalization of raw αSMA (D×A) to percentage inhibition (PIN) values, on a plate-to-plate basis
• DAPI fluorescence applied for HCA-based quantification of the number of imaged cells, on a plate-to-plate basis
[formula] • μn is the average numbers of nuclei of the vehicle control (TGF-β1+0.1% DMSO) • Xi is the compound number of nuclei

In the next series the test system is JAK signaling. Nature of the series: JAK selectivity assay, HEK blue IL-12 reporter. The series is classed as cell-based. Particulars: HEK-Blue, 24 h, 12.5 ng/ml IL-12, 24 h. The method, then: The cells were purchased from Invivogen (Catalog Nr: hkb-il12) and maintained according to vendor instructions. On the day of the experiment, cells were harvested by repeated tapping of the flask to shake loose the cells attached to the bottom of the flask. Then, cells were harvested, washed and resuspended in DMEM media supplemented with 10% fetal calf serum. 30 Microliters of cell suspension was seeded into a 384-well tissue culture-coated plate containing approximately 10,000 total cells. […] Using the ECHO “Dose Response” software, the test compound was added in duplicate wells with a 3-fold dilution curve. DMSO was back-filled to normalize the DMSO across all wells. […] After 30 minutes of incubation at room temperature, the optical density was measured at 620 nanometer using the Perkin Elmer Envision plate reader. A color change can be detected at this wavelength when secreted alkaline phosphatase, which is triggered by IL-12 signaling, is present in the supernatant. […]

Series [2] deals with TGF-β1-induced SMAD signaling pathway. Nature of the series: RD SMAD reporter (RDSR) assay. The series is classed as cell-based. Particulars: Homo sapiens; 200 pg/ml rhTGF-beta1, 24 h. The source says: TGF-beta (also referred to as TGF-β1) is a multifunctional, highly conserved cytokine with many key functions in development, cell growth and apoptosis, and plays a key role in the tissue repair response and functions as a potent immune modulator. TGF-β signaling is triggered when the activated TGF-β homodimer binds to the TGF-β receptor 2, which in turn leads to the recruitment and phosphorylation of TGF-β receptor 1 (ALK5). Activated TGF-β receptor 1 phosphorylates the signal transduction molecules SMAD2 and SMAD3. These bind to common mediator SMAD4 and translocate to the nucleus where they bind to short conserved DNA sequences called the SMAD binding element and induce the transcription of various target genes.
A stable cellular reporter, the RD SMAD reporter (RDSR), was generated to test the ability of certain compounds disclosed herein to inhibit the canonical TGF-β1-induced SMAD signaling pathway in a cellular context. The RD SMAD reporter (RDSR) cell line was generated by stably integrating the SMAD cellular reporter plasmid (Promega, pGL4.48[luc2P/SBE/Hygro]) into the human rhabdomyosarcoma cell line RD (ATCC, CCL-136). Once SMAD signaling was triggered with, for example, the addition of TGF-beta1, receptor-activated SMADs bind the SMAD binding elements (SBEs) leading to the expression of intracellular luciferase.
The rhabdomyosarcoma line RD (ATCC, CCL-136) was transfected with a SMAD reporter vector (Promega, E3671) and a polyclonal stable cell line was selected using hygromycin B. The transfected vector contained three copies of a Smad-binding element (SBE) that drives transcription of the luciferase reporter gene luc2P (Photinus pyralis). luc2P is a synthetically-derived luciferase sequence with humanized codon optimization that is designed for high expression and reduced anomalous transcription. The luc2P gene contains hPEST, a protein destabilization sequence, which allows luc2P protein levels to respond more quickly than those of luc2 to induction of transcription. The intracellular luciferase is quantified by the addition of equal volume (100 μl) of ONE-GLO substrate (Promega, E6120) and read within ten minutes on the Envision plate reader. The stable RDSR cell line was tested by evaluating the response to human TGF-beta1 (R&D Systems, 7754-BH-005) as well as myostatin (R&D Systems, 788-G8-010/CF) in a concentration-dependent manner after twenty-four hours of stimulation. […] For compound evaluation, the tool compounds (vactosertib and PF-06952229 (a TGFβR1 inhibitor available from MedChem Express HY-136244) were included as positive controls) or test compounds were incubated with cells for one hour at 37° C. then stimulated with 200 pg/ml rhTGF-beta1 for twenty-four hours. The activity of the reporter was determined with the addition of ONE-GLO (Promega) substrate, and luminescence counts were collected on the Envision plate reader (Perkin Elmer). The IC50 or EC50 was calculated using nonlinear regression curve fitting with graph pad prism software.
A comparative RDSR analysis was performed using IC50 values for selected compounds and standards obtained using the RDSR assay protocol described in Example 3.
The tool compounds vactosertib (an ALK5 inhibitor sourced from MedChem Express, HY-19928) and PF-06952229 (a TGFβR1 inhibitor) were included in the study as comparator compounds. Selected example compounds or comparator compounds were incubated with cells for one hour at 37° C. then stimulated with 200 pg/ml rhTGF-beta1 for twenty-four hours. The activity of the reporter was determined by adding ONE-GLO (Promega) substrate, and collecting luminescence counts on the Envision plate reader (Perkin Elmer).
Each of the example compounds and comparator compounds were tested at drug concentrations of from 20 micromolar to 1 nanomolar, and the IC50 value for each was calculated using Graph Pad Prism software. DMSO was used as a negative control and all wells contained normalized DMSO concentrations. […]

The mark [3] stands for this setting: read-out: Average IC50 (nM), average of donors IPF03, IPF06, IPF08.
The mark [4] stands for this setting: read-out: IC50 αSMA, donor IPF03.
The mark [5] stands for this setting: read-out: IC50 αSMA, donor IPF06.
The mark [6] stands for this setting: read-out: IC50 αSMA, donor IPF08.
Setting [7] is: read-out: pIC50 αSMA, donor IPF03 (converted).
Setting [8] is: read-out: pIC50 αSMA, donor IPF06 (converted).
The mark [9] stands for this setting: read-out: pIC50 αSMA, donor IPF08 (converted).

On to `Cc1nn(CC(F)(F)F)cc1Nc1cc(Nc2cnnc3c(C)cccc23)ccn1` [Compound 01, N2-[3-methyl-1-(2,2,2-trifluoroethyl)-1H-pyrazol-4-yl]-N4-(8-methylcinnolin-4-yl)pyridine-2,4-diamine], for which the IC50 in series [1] (setting [3]) is 83.3 nM; in series [1] (setting [4]), 100 nM; in series [1] (setting [5]), 100 nM; in series [1] (setting [6]), 50 nM; in series [1] (setting [7]), 100 nM; in series [1] (setting [8]), 100 nM. In addition, the IC50 in series [1] (setting [9]) was 50.1 nM; with JAK signaling, 3.8 µM. The “inhibition of TGF-β1-mediated αSMA expression” value in series [1] was “full concentration-dependent inhibition”. Moreover, the “Max PIN (%)” value in series [1] (donor IPF03) amounted to 106%; in series [1] (donor IPF06) it was 107%; in series [1] (donor IPF08) it was 101%. Moreover, the loss of nuclei in series [1] is recorded as over 25%. In series [1] (donor IPF03), the Potentially toxic concentration is 5.0. Also, the “modulation of the number of nuclei” value in series [1] is “No modulation of the number of nuclei was observed”. Also, the EC50 in series [2] was under 0.05 µM.

Consider `Cc1cccc(-c2[nH]c(CNc3ccccc3F)nc2-c2ccc3ncnn3c2)n1` [Vactosertib, vactosertib, reference compound], for which the IC50 in series [1] (setting [3]) is 38.3 nM; in series [1] (setting [4]), 50 nM; in series [1] (setting [5]), 40 nM; in series [1] (setting [6]) it was 25 nM; in series [1] (setting [7]), 50.1 nM; in series [1] (setting [8]), 39.8 nM. For the same molecule, the IC50 is 25.1 nM in series [1] (setting [9]) and 18.5 µM with JAK signaling. Besides, the entries for the “Max PIN (%)” value in series [1] (donor IPF03), in series [1] (donor IPF06) and in series [1] (donor IPF08) were 105%, 104% and 102%, respectively.

As for `Cc1cccc2c(Nc3ccnc(Nc4ccc(N5CCOCC5)cc4)c3)cnnc12` [Compound 05, N4-(8-methylcinnolin-4-yl)-N2-[4-(morpholin-4-yl)phenyl]pyridine-2,4-diamine], the IC50 in series [1] (setting [3]) was 50 nM; in series [1] (setting [4]) it was 60 nM; in series [1] (setting [5]) it was 50 nM; in series [1] (setting [6]), 40 nM; in series [1] (setting [7]) it was 63.1 nM; in series [1] (setting [8]), 50.1 nM. For the same molecule, the IC50 in series [1] (setting [9]) was 39.8 nM. In addition, the results for the “Max PIN (%)” value in series [1] (donor IPF03), in series [1] (donor IPF06) and in series [1] (donor IPF08) were 106%, 106% and 101%, respectively. In series [1] (donor IPF03), this molecule yielded a Potentially toxic concentration of 5.0. In addition, the EC50 in series [2] was under 0.05 µM.

For the molecule `Clc1cccc2c(Nc3ccnc(Nc4cccc(N5CCOCC5)c4)c3)cnnc12` [Compound 04, N4-(8-chlorocinnolin-4-yl)-N2-[3-(morpholin-4-yl)phenyl]pyridine-2,4-diamine], the IC50 in series [1] (setting [3]) is 40 nM; in series [1] (setting [4]) it was 40 nM; in series [1] (setting [5]), 50 nM; in series [1] (setting [6]) it was 30 nM; in series [1] (setting [7]), 39.8 nM; in series [1] (setting [8]), 50.1 nM. The IC50 was 31.6 nM in series [1] (setting [9]) and 3.7 µM with JAK signaling. Besides, the “inhibition of TGF-β1-mediated αSMA expression” value in series [1] was “full concentration-dependent inhibition”. Further, the “Max PIN (%)” value in series [1] (donor IPF03) stood at 107%; in series [1] (donor IPF06), 106%; in series [1] (donor IPF08), 100%. The molecule also had a loss of nuclei in series [1] of under 25%. In addition, in series [1], the “modulation of the number of nuclei” value is given as “No modulation of the number of nuclei was observed”. Besides, the EC50 in series [2] was under 0.05 µM.
